Experimental data from patent US20220064604A1, “SYSTEMIC SCLEROSIS DISEASE MODEL AND USE THEREOF” (YiPSCELL Inc., priority 2018, published 2022).
Starred links: 1 amine or outer side, 2 acyl side, 3 side chain; linkers in the order of their positions; H or OH if unused. Positions of bridges follow the written chain, without caps; N, C: chain ends. Non-standard residues stand in square brackets, D forms with d. Residues, ends and D or L forms follow the SMILES beside them. Chains are numbered I, II in the order given. Actinocin(9to1) = Cc1c2oc3c(C)ccc(C(=O)[*:1])c3nc-2c(C(=O)[*:2])c(N)c1=O; NMeV = CN[C@H](C(=O)O)C(C)C; Sar = CNCC(=O)O

Columns and labels:
[1] = test system: fibroblasts derived from the induced pluripotent stem cells; assay: Cell proliferation of iPSC-derived fibroblasts, Cell Counting Kit-8 (FDA-approved drug screening); assay type: cell-based, human; conditions: absorbance at 450 nm
Method: For cell proliferation, absorbance was measured at 450 nm by using the Cell Counting Kit-8 (Dojindo).
The plated cells were treated with about 800 FDA-approved drugs to screen for drugs that reduce the proliferation (FIG. 6A). For cell proliferation, absorbance was measured at 450 nm by using the Cell Counting Kit-8 (Dojindo) (FIG. 6B).

ACTA2 and COL1A1 = assay: Fibrosis marker gene expression (qRT-PCR) in SSc iPSC-derived fibroblasts; assay type: cell-based, human; conditions: 5 μM; SSc patient iPSC-derived fibroblasts; vs untreated
Method: In order to verify the fibrosis model of the fibroblasts derived from the induced pluripotent stem cells of patients with systemic sclerosis formed in Example 3 above, 2.5×10^5 fibroblasts were plated on a 6-well plate, and maintained and expanded for 1 day. One day later, pirfenidone and nintedanib were treated at a concentration of 5 μM. The total RNA was extracted using Trizol, and cDNA was synthesized using the Revert Aid™ First Strand cDNA Synthesis kit. The qRT-PCR was performed on the synthesized cDNA using LightCycle 480 SYBR Green. The primers used are presented in [Table 3]. All of the experiments were repeated 3 times, and the threshold of the average cycle was used to calculate gene expression for averaging GAPDH as an internal control.

total collagen in iPSC-F = assay: Total collagen expression, hydroxyproline assay, in iPSC-derived fibroblasts; assay type: cell-based, human; conditions: for expression of the total collagen: 5 μM, SSc patient iPSC-derived fibroblasts, vs untreated
Method: (§1) The cells or cell culture media were harvested, mixed with hydrochloric acid at a ratio of 1:1, and cultured at 120° C. for 3 hours. After culture, 5 mg of activated charcoal was added, followed by centrifugation at 13,000×g for 5 minutes to separate only the supernatant. The harvested supernatant was transferred to a 96-well plate and dried completely at 60° C. The Chloramine T/Oxidation Buffer mixture was added to the well, and it was cultured for 5 minutes at room temperature. After adding the diluted DMAB Reagent and incubating at 60° C. for 90 minutes, absorbance at 560 nm was measured.
as §1, with “For collagen expression, the hydroxyproline assay kit (Sigma) was used. The cells” for “The cells”, “1:1, and incubated at 120°” for “1:1, and cultured at 120°”, “hours. After incubation, 5 mg” for “hours. After culture, 5 mg”, “it was incubated for 5” for “it was cultured for 5”
For collagen expression, the hydroxyproline assay kit (Sigma) was used. The cells or cell culture media were harvested, mixed with hydrochloric acid at a ratio of 1:1, and incubated at 120° C. for 3 hours. After incubation, 5 mg of activated charcoal was added, followed by centrifugation at 13,000×g for 5 minutes to separate only the supernatant. […] After adding the diluted DMAB Reagent and incubating at 60° C. for 90 minutes, absorbance at 560 nm was measured.
After 1 day, pirfenidone and nintedanib, which are drugs approved as anti-fibrotic drugs, were treated at a concentration of 5 μM. Collagen expression was measured using the hydroxyproline assay kit (Sigma). […] After adding the diluted DMAB Reagent and incubating at 60° C. for 90 minutes, absorbance was measured at 560 nm to measure the total amount of collagen.

bleomycin mouse model [2] = assay: Thickness of skin tissue in bleomycin model (histology); assay type: in vivo
Method: (§2) A systemic sclerosis model was established by dissolving Bleocin (Dong-A ST, 15 mg) in PBS and injecting it daily into the nape of mice. Raloxifene and bazedoxifene were injected subcutaneously for 21 days from 3 days after the injection of Bleocin (FIG. 8A).
In order to verify the antifibrotic efficacy of raloxifene in the bleomycin model established in Example 8-1 above, the skin tissue was harvested and paraffin blocks were prepared. The harvested skin tissue was fixed in 4% formaldehyde. The tissue was maintained in the running water for a day to remove the remaining fixative. Dehydration was carried out sequentially while increasing the concentration of an ethanol solution. After dehydration, a transparent process was performed with xylene, followed by paraffin penetration. The next day, the tissue was fixed to a paraffin block, and a tissue section was obtained using a microtome. The slide was dried at 60° C. for 1 hour. After the slide was deparaffinized with xylene, it was rehydrated while decreasing the concentration of the ethanol solution and washed with tap water, and staining was performed.
For hematoxylin and eosin (H&E) staining, sections were incubated in the Harris hematoxylin solution for 10 minutes. The slide was washed, decolorized in an ethanol solution containing 1% HCl, and then neutralized in 0.2% ammonia water. […]

bleomycin mouse model [3] = assay: Pulmonary fibrosis in bleomycin model (Masson Trichrome staining); assay type: in vivo
Method: A systemic sclerosis model was established by dissolving Bleocin (Dong-A ST, 15 mg) in PBS and injecting it daily into the nape of mice. Raloxifene and bazedoxifene were injected subcutaneously for 21 days from 3 days after the injection of Bleocin (FIG. 8A). […] For Masson Trichrome staining, the slide was mordated overnight in the Bouin solution. After washing the slide, nuclei were stained for 10 minutes with Weigert Iron Hematoxylin. The cytoplasm was stained for 5 minutes with Biebrich scarlet-acid fuchsin. It was decolorized for 10 minutes with a solution in which phosphotungstic acid, phosphomolybdic acid, and DW were mixed at a ratio of 1:1:2. The collagenic fiber was stained by maintaining in a 2% aniline blue solution for 5 minutes. The slide was washed and subjected to a dehydration process while increasing the concentration of ethanol. The remaining ethanol was removed with xylene, and it was sealed using the VectaMount Permanent Mounting Medium.

α-SMA = α-SMA expression by western blot in iPSC-derived fibroblasts; assay type: cell-based, human
Method: In order to verify the antifibrotic effect of dactinomycin and raloxifene, which are the drugs selected through the above experiment, 1×10^6 fibroblasts were plated on a 100 mm culture dish, treated with the target drugs, and maintained and expanded. The protein was extracted using the RIPA buffer (Sigma) to analyze the expression of fibrosis factors, and the protein concentration was quantified by the Bradford assay. The same concentration of the protein was loaded on 10% SDS-PAGE, and the protein was transferred to polyvinylidene difluoride membranes. […] After washing with PBS containing 0.1% Tween-20, the peroxidase-linked IgG secondary antibody was incubated, and protein expression was measured using the ECL kit.
In order to confirm the reduction effect of the expression of the fibrosis factors of raloxifene, which is the drug selected in Example 6, raloxifene was treated by concentration, and the expression of α-SMA was confirmed. […] The protein was extracted using the RIPA buffer (Sigma) to analyze the expression of fibrosis factors, and the protein concentration was quantified by the Bradford assay. […] After washing with PBS containing 0.1% Tween-20, the peroxidase-linked IgG secondary antibody was incubated, and protein expression was measured using the ECL kit.

iPSC-F = assay: Wound healing assay in iPSC-F with TGF-b induced fibrosis; assay type: cell-based, human
Method: The fibroblasts were plated on a 6-well plate and maintained and expanded. When the cells filled the plate, the plate was scratched, and fibrosis was induced by TGF-b and it was treated with the drug raloxifene.

[4] = test system: COL1A1, COL3A1, and ACTA2; assay: Fibrosis factor gene expression (qRT-PCR) in skin tissue of bleomycin model; assay type: in vivo, mouse; conditions: subcutaneous for 21 days
Method: as §2
ECM gene expression was confirmed to verify the antifibrotic efficacy of raloxifene in the bleomycin model established in Example 8-1 above. After harvesting the skin tissue, the total RNA was extracted using Trizol, and cDNA was synthesized using the Revert Aid™ First Strand cDNA Synthesis kit. The qRT-PCR was performed on the synthesized cDNA using LightCycle 480 SYBR Green. The primers used are presented in [Table 4]. All of the experiments were repeated three times, and the threshold of the average cycle was used to calculate gene expression for averaging GAPDH as an internal control.

3D fibroblast layer = assay: Thickness of 3D fibroblast layer with TGF-b induced fibrosis; assay type: cell-based, human
From the text: A 3D fibroblast layer was produced using the fibroblasts formed in Example 3 above. 2×10^5 fibroblasts after 28 days of differentiation were harvested and mixed with collagen 1 and plated on a 6-well-sized Transwell plate. It was replaced once every 2 days with Fibroblast Differentiation Culture Medium 1 for 5 days (FIG. 5F).
In order to confirm the effect of reducing the skin thickness by raloxifene, which is the drug selected in Example 6 above, fibrosis was induced in the 3D fibroblast layer with TGF-b, and it was treated with the drug raloxifene.

[5] = raloxifene treated by concentration

Cc1c2oc3c(C)ccc(C(=O)N[C@@H]4C(=O)N[C@H](C(C)C)C(=O)N5CCC[C@H]5C(=O)N(C)CC(=O)N(C)[C@@H](C(C)C)C(=O)O[C@@H]4C)c3nc-2c(C(=O)N[C@@H]2C(=O)N[C@H](C(C)C)C(=O)N3CCC[C@H]3C(=O)N(C)CC(=O)N(C)[C@@H](C(C)C)C(=O)O[C@@H]2C)c(N)c1=O [dactinomycin] (I: T[dV]P[Sar][NMeV] / II: T[dV]P[Sar][NMeV]; ester I:1-I:C, II:1-II:C; linker I:N-II:N via Actinocin(9to1))
cell proliferation [1]: decreased

COC(=O)c1ccc2c(c1)NC(=O)/C2=C(\Nc1ccc(N(C)C(=O)CN2CCN(C)CC2)cc1)c1ccccc1 [nintedanib]
gene expression of ACTA2 (ACTA2 and COL1A1): significantly reduced
gene expression of COL1A1 (ACTA2 and COL1A1): significantly reduced
expression of the total collagen (total collagen in iPSC-F): significantly reduced

Cc1ccc(=O)n(-c2ccccc2)c1 [pirfenidone]
gene expression of ACTA2 (ACTA2 and COL1A1): significantly reduced
gene expression of COL1A1 (ACTA2 and COL1A1): significantly reduced
expression of the total collagen (total collagen in iPSC-F): significantly reduced

O=C(c1ccc(OCCN2CCCCC2)cc1)c1c(-c2ccc(O)cc2)sc2cc(O)ccc12 [raloxifene]
thickness of the skin tissue (bleomycin mouse model [2]): reduced
lung fibrosis (bleomycin mouse model [3]): reduced
expression of α-SMA (α-SMA; iPSC-F of patients with systemic sclerosis): effectively decreased the expression of α-SMA compared to dactinomycin
expression of α-SMA, treated by concentration (α-SMA; [5]): reduced as the treatment concentration of raloxifene was increased
wound healing, which was increased by TGF-b (iPSC-F; wound healing assay in iPSC-F): reduced
proliferation of the cells, which was increased by TGF-b (iPSC-F; wound healing experiment, TGF-b induced): reduced
cell proliferation [1]: decreased
expression of the total collagen, treated by concentration (total collagen in iPSC-F; [5]): reduced as the treatment concentration of raloxifene was increased
expression of ACTA2 [4]: reduced
expression of COL1A1 [4]: reduced
expression of COL3A1 [4]: reduced
thickness of the 3D fibroblast layer, which was increased by TGF-b (3D fibroblast layer): reduced
